From patent US8536164B2, “Fused pyridine compounds as casein kinase inhibitors” (Pfizer Inc., priority 2010, dated 2013) come the findings set out here.

The structures appear in SMILES notation. Bounds are passed on as bounds.

For assay [1], the target named is T1, human CK1Epsilon (Cos 7 cells cotransfected with mouse Per3-GFP) (Homo sapiens, UniProt P49674).
T1 construct: His tag of the vector pcDNA4/hisA (only the vector name is printed); expressed in transfected cells; host or cells: Cos 7 cells
As to the kind of experiment: CK1 WCA HCS nuclear translocation assay (CK1ε). In kind it is cell-based. To be noted: inhibition of mPer3-GFP translocation to the nucleus, overnight exposure, read-out: CK1 ε WCA EC50. The procedure: (§1) CK1 WCA HCS Nuclear Translocation Assay.
(§2) Cos 7 cells were maintained at 37° C. in 5% CO2 in Dulbecco's Modified Eagle Medium (Gibco 11995) supplemented with 10% fetal bovine serum. Log-phase cells were dislodged with 5 min treatment of TrypLE Express (Gibco 12605) and viable cell count was determined with Cedex cell counter. Cells were diluted in DMEM medium to a density of 1.5e5 viable cells/mL in ⅔ of the final volume of final transfected cell mix. Cells were cotransfected with two plasmid DNAs, mouse Per3-GFP (green fluorescent protein) in pd2EGFP-N1 vector and human CKI in pcDNA4/hisA vector (for CK1Epsilon at a ratio of 1:5 respectively; for CK1δ at a ratio of 1:11 respectively), using Lipofectamine 2000 reagent (Invitrogen) according to the manufacturer's recommendations. The transfection mix contained approximately 0.83 μg/mL of DNA and 6 μL/mL of Lipofectamine 2000, in a total of ⅓ of the final transfection volume in Opti-MEM I medium (Invitrogen). After 20 min at rt, the cell mix was combined with the DNA transfection mix, per manufacturer instructions. 50 μL of the transfected cell suspension was dispensed per well by multidrop dispenser into Greiner 384-well Cellcoat (PDL) plates (Greiner #781946).
(§3) Compounds were solubilized in 100% DMSO, diluted with Opti-MEM I to a 4× concentration before addition to plated cells. After overnight exposure at 37° C. in a CO2 incubator, cells were fixed by the addition of 12% paraformaldehyde (Electron Microscopy Sciences, Hatfield, Pa.) in phosphate-buffered saline (PBS) with 20% sucrose to a final concentration of 4%, and then the cells were incubated for 30 min at rt. Fixative was removed, and cells were washed with PBS and then stained with 0.4 μg/ml Hoechst dye (Invitrogen) in blocking buffer containing 4% goat serum (Vector Labs s-1000) and 0.1% TritonX (Sigma T8787) for 1 h. Cells were washed again with PBS and stored at 4° C. in PBS or scanned immediately with the Cellomics ArrayScan VTI. CKIδ dependent nuclear localization of the GFP-tagged mPer3 protein was quantitated using the Cellomics ArrayScan VTI system utilizing the Cytoplasm to Nucleus translocation bioapplication to calculate the Nuclear-Cytoplasmic Intensity difference. Inhibitors of CK1 δ/ε were tested across a dose response curve to evaluate their ability to inhibit mPer3-GFP translocation to the nucleus. Cells with a total intensity of mPER3:GFP expression equal to or greater than 20,000 are included in analysis.

In assay [2] the target is T2, human CK1δ (Cos 7 cells cotransfected with mouse Per3-GFP) (Homo sapiens, UniProt P48730).
T2 construct: His tag of the vector pcDNA4/hisA (only the vector name is printed); expressed in transfected cells; host or cells: Cos 7 cells
As to the kind of experiment: CK1 WCA HCS nuclear translocation assay (CK1δ). In kind it is cell-based. The settings on record: inhibition of mPer3-GFP translocation to the nucleus, overnight exposure, read-out: CK1 δ WCA EC50. The method, then: as §1, §2, §3

Another assay has as its target CKIδ wild type (Homo sapiens, UniProt P48730). As to the kind of experiment: CK1δ kinase assay (Kinase-Glo). To be noted: 10 μM ATP, 2 nM CKIδ, 85 min at 25° C.; read-out: CK1 δ IC50. In kind it is biochemical. The procedure:
The CK1δ kinase assay was performed in a 40 μl final volume in buffer containing 50 mM Tris, pH 7.5, 10 mM MgCl2, 1 mM dithiothreitol, 100 μg/mL BSA with 10 μM ATP, 2 nM CKIδ wild type, and 42 μM peptide substrate PLSRTLp[…] (Flotow et al., 1990) in the presence of 1 μl of CKIδ inhibitor or 4% DMSO. The reaction was incubated for 85 min at 25° C.; detection was carried out as described for the Kinase-Glo Assay (Promega). Luminescent output was measured on the Perkin Elmer Envision plate reader (PerkinElmer, Waltham, Mass.).

The next assay addresses CKI ε wild type (Homo sapiens, UniProt P49674). As to the kind of experiment: CK1ε kinase assay (Kinase-Glo). In kind it is biochemical. To be noted: 10 μM ATP, 2.5 nM CKI ε, 70 min at 25° C.; read-out: CK1 ε:IC50. The procedure:
The CK1ε kinase assay was performed in a 40-μl final volume in buffer containing 50 mM Tris, pH 7.5, 10 mM MgCl2, 1 mM dithiothreitol, 100 μg/mL BSA with 10 μM ATP, 2.5 nM CKI ε wild type, and 42 μM peptide substrate PLSRTLp[…] (Flotow et al., 1990) in the presence of 1 μl of CKI ε inhibitor or 4% DMSO. The reaction was incubated for 70 min at 25° C.; detection was carried out as described for the Kinase-Glo Assay (Promega). Luminescent output was measured on the Perkin Elmer Envision plate reader (PerkinElmer, Waltham, Mass.).
(In general: Kinase-Glo reads ATP consumption through a luciferase reaction.)

T1 sequence (P49674 whole entry): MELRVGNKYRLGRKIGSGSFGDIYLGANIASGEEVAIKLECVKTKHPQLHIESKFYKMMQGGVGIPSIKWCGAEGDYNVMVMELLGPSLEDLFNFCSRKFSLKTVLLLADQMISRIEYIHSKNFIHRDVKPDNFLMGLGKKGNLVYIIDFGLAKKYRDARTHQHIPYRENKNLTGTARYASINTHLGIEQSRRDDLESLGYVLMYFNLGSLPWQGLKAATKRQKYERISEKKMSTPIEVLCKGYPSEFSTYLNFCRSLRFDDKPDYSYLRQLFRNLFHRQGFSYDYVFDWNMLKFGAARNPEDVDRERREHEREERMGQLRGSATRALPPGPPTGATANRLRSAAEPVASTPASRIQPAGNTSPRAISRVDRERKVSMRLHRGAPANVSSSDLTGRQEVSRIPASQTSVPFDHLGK
Chain of CKI ε wild type (P49674 whole entry): as above
Chain of CKIδ wild type (P48730 whole entry): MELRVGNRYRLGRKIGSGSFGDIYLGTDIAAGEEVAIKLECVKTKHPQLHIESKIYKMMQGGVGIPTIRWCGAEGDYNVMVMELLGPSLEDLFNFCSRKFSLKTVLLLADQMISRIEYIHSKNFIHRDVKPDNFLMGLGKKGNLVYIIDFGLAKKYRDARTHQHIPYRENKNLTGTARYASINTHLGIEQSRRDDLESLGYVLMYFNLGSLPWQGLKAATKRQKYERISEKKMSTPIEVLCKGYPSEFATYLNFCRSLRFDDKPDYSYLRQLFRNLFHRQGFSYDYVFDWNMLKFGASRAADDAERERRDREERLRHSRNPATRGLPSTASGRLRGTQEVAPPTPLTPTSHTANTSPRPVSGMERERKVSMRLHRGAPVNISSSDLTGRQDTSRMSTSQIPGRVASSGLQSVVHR
T2 sequence (P48730 whole entry): as above

The term EC50 denotes the concentration giving half of the maximal effect. Turning to `Cn1cc(-c2ccnc3c2CN(C(=O)C2CC2)C3)c(-c2ccc(F)cc2)n1` [Example 21, 6-(cyclopropylcarbonyl)-4-[3-(4-fluorophenyl)-1-methyl-1H-pyrazol-4-yl]-6,7-dihydro-5H-pyrrolo[3,4-b]pyridine], the EC50 in assay [1] was 82.3 nM; in assay [2] it was 18.3 nM.
In the case of `CCC(=O)N1Cc2nccc(-c3cn(C)nc3-c3ccc(F)cc3)c2C1` [Example 13, 4-[3-(4-fluorophenyl)-1-methyl-1H-pyrazol-4-yl]-6-propionyl-6,7-dihydro-5H-pyrrolo[3,4-b]pyridine], the EC50 in assay [1] was 124 nM; in assay [2], 16.2 nM.
As for `Cn1cc(-c2ccnc3c2CN(C(=O)OCc2ccccc2)C3)c(-c2ccc(F)cc2)n1` [Example 22, benzyl 4-[3-(4-fluorophenyl)-1-methyl-1H-pyrazol-4-yl]-5,7-dihydro-6H-pyrrolo[3,4-b]pyridine-6-carboxylate], the values for the EC50 in assay [1] and in assay [2] were 275 nM and 51.6 nM, respectively.
As for `Cn1cc(-c2ccnc3c2CN(C(=O)C2CCOCC2)C3)c(-c2ccc(F)cc2)n1` [Example 19, 4-[3-(4-fluorophenyl)-1-methyl-1H-pyrazol-4-yl]-6-(tetrahydro-2H-pyran-4-ylcarbonyl)-6,7-dihydro-5H-pyrrolo[3,4-b]pyridine], the figures for the EC50 in assay [1] and in assay [2] were 566 nM and 54.8 nM, respectively.
In the same order, the values of `Cn1cc(-c2ccnc3c2CN(C(=O)C2CCOC2)C3)c(-c2ccc(F)cc2)n1` (stereo not drawn) [Example 16, 4-[3-(4-fluorophenyl)-1-methyl-1H-pyrazol-4-yl]-6-(tetrahydrofuran-3-ylcarbonyl)-6,7-dihydro-5H-pyrrolo[3,4-b]pyridine] are 218 nM and 38.1 nM.
Taken in the same sequence, the figures for `CC1CNCc2nccc(-c3cn(C)nc3-c3ccc(F)cc3)c2O1` (racemic) [Example 8, 9-[3-(4-fluorophenyl)-1-methyl-1H-pyrazol-4-yl]-2-methyl-2,3,4,5-tetrahydropyrido[2,3-f][1,4]oxazepine] were 217 nM and 47 nM.
One may read the IC50 as the concentration that gives 50% inhibition. In the case of `Cn1cc(-c2ccnc3c2CCC3)c(-c2ccc(F)cc2)n1` [Example 23, 4-[3-(4-fluorophenyl)-1-methyl-1H-pyrazol-4-yl]-6,7-dihydro-5H-cyclopenta[b]pyridine], in assay [2], the concentration giving a half-maximal response (EC50) was determined as 214 nM. For the same compound, the half-maximal inhibitory concentration (IC50) at CKIδ wild type stood at 25.4 nM; on CKI ε wild type, 157 nM.
In the same order, the values of `Cn1cc(-c2ccnc3c2CCC3O)c(-c2ccc(F)cc2)n1` (stereo not drawn) [Example 24, 4-[3-(4-fluorophenyl)-1-methyl-1H-pyrazol-4-yl]-6,7-dihydro-5H-cyclopenta[b]pyridin-7-ol] are 266 nM, 28.5 nM and 149 nM.
As to `Cc1cc(CN2Cc3nccc(-c4cn(C)nc4-c4ccc(F)cc4)c3C2=O)nn1C` [Example 28, 6-[(1,5-dimethyl-1H-pyrazol-3-yl)methyl]-4-[3-(4-fluorophenyl)-1-methyl-1H-pyrazol-4-yl]-6,7-dihydro-5H-pyrrolo[3,4-b]pyridin-5-one], the EC50 in assay [2] turned out to be 66.4 nM. Moreover, the half-inhibitory concentration (IC50) amounted to 15.7 nM at CKIδ wild type and 86.4 nM on CKI ε wild type.
Consider `Cn1cc(-c2ccnc3c2C(=O)N([C@H]2[C@@H]4COC[C@@H]42)C3)c(-c2ccc(F)cc2)n1` [Example 45, 4-[3-(4-fluorophenyl)-1-methyl-1H-pyrazol-4-yl]-6-[(1R,5S,6r)-3-oxabicyclo[3.1.0]hex-6-yl]-6,7-dihydro-5H-pyrrolo[3,4-b]pyridin-5-one], for which the half-maximal effective concentration (EC50) in assay [2] amounted to 167 nM. In addition, the IC50 came to 19.5 nM on CKIδ wild type and 87 nM on CKI ε wild type.
Regarding `CCC[C@@H](C)N1Cc2nccc(-c3cn(C)nc3-c3ccc(F)cc3)c2C1=O` [Example 47, 4-[3-(4-fluorophenyl)-1-methyl-1H-pyrazol-4-yl]-6-[(1R)-1-methylbutyl]-6,7-dihydro-5H-pyrrolo[3,4-b]pyridin-5-one], the EC50 in assay [2] is 89.7 nM. Moreover, the figures for the IC50 on CKIδ wild type and at CKI ε wild type were greater than 160 nM and greater than 423 nM, respectively.
In the same order, the values of `Cn1cc(-c2ccnc3c2C(=O)N(Cc2cccc(C#N)c2)C3)c(-c2ccc(F)cc2)n1` [Example 41, 3-({4-[3-(4-fluorophenyl)-1-methyl-1H-pyrazol-4-yl]-5-oxo-5,7-dihydro-6H-pyrrolo[3,4-b]pyridin-6-yl}methyl)benzonitrile] are 65.5 nM, 20.5 nM and 108 nM.
For `COCCN1Cc2nccc(-c3cn(C)nc3-c3ccc(F)cc3)c2C1=O` [Example 42, 4-[3-(4-fluorophenyl)-1-methyl-1H-pyrazol-4-yl]-6-(2-methoxyethyl)-6,7-dihydro-5H-pyrrolo[3,4-b]pyridin-5-one], in assay [2], the 50% effective concentration (EC50) amounted to 623 nM. For the same compound, the results for the 50% inhibitory concentration (IC50) on CKIδ wild type and at CKI ε wild type were 67.3 nM and 386 nM, respectively.
In the same order, the values of `Cn1cc(-c2ccnc3c2C(=O)N(CCOC(C)(C)C)C3)c(-c2ccc(F)cc2)n1` [Example 30, 6-(2-tert-butoxyethyl)-4-[3-(4-fluorophenyl)-1-methyl-1H-pyrazol-4-yl]-6,7-dihydro-5H-pyrrolo[3,4-b]pyridin-5-one] are 159 nM, 27.7 nM and 149 nM.
In the same order, the values of `COCCCN1Cc2nccc(-c3cn(C)nc3-c3ccc(F)cc3)c2C1=O` [Example 29, 4-[3-(4-fluorophenyl)-1-methyl-1H-pyrazol-4-yl]-6-(3-methoxypropyl)-6,7-dihydro-5H-pyrrolo[3,4-b]pyridin-5-one] are 217 nM, 26.2 nM and 131 nM.
In the same order, the values of `Cc1c(CN2Cc3nccc(-c4cn(C)nc4-c4ccc(F)cc4)c3C2=O)cnn1C` [Example 35, 6-[(1,5-dimethyl-1H-pyrazol-4-yl)methyl]-4-[3-(4-fluorophenyl)-1-methyl-1H-pyrazol-4-yl]-6,7-dihydro-5H-pyrrolo[3,4-b]pyridin-5-one] are 104 nM, 23.3 nM and 130 nM.
Turning to `Cn1cc(-c2ccnc3c2C(=O)N(CCC#N)C3)c(-c2ccc(F)cc2)n1` [Example 40, 3-{4-[3-(4-fluorophenyl)-1-methyl-1H-pyrazol-4-yl]-5-oxo-5,7-dihydro-6H-pyrrolo[3,4-b]pyridin-6-yl}propanenitrile], in assay [2], the EC50 was found to be 53.7 nM. In addition, the figures for the IC50 on CKIδ wild type and at CKI ε wild type were 11.1 nM and 47.1 nM, respectively.
In the same order, the values of `Cn1cc(-c2ccnc3c2C(=O)N(Cc2cccnc2)C3)c(-c2ccc(F)cc2)n1` [Example 50, 4-[3-(4-fluorophenyl)-1-methyl-1H-pyrazol-4-yl]-6-(pyridin-3-ylmethyl)-6,7-dihydro-5H-pyrrolo[3,4-b]pyridin-5-one] are 83.6 nM, 21.3 nM and 145 nM.
Turning to `Cn1cc(-c2ccnc3c2C(=O)N(C2CCOCC2)C3)c(-c2ccc(F)cc2)n1` [Example 36, 4-[3-(4-fluorophenyl)-1-methyl-1H-pyrazol-4-yl]-6-(tetrahydro-2H-pyran-4-yl)-6,7-dihydro-5H-pyrrolo[3,4-b]pyridin-5-one], the concentration giving a half-maximal response (EC50) in assay [2] was 224 nM. For the same compound, the 50% inhibitory concentration (IC50) was greater than 195 nM at CKIδ wild type and greater than 516 nM on CKI ε wild type.
